Data on three compounds can be found in PMC7312485, “Lessons on the Sigma-1 Receptor in TNBS-Induced Rat Colitis: Modulation of the UCHL-1, IL-6 Pathway” (International Journal of Molecular Sciences, 2020).

One assay relates to TNBS-induced rat colitis. Nature of the assay: Severity of inflammation (macroscopic lesion area by planimetry) in TNBS-induced colitis. The note with it: TNBS group 61.68 ± […]. It is filed as in vivo. How it is done:
(§1) Animals were randomly divided into 3 groups: absolute control (no treatment, n = 12), 50% EtOH (ethanol enema, n = 12), and TNBS (10 mg dissolved in 50% Ethanol, n = 85). Colitis was assessed following Morris’ method. Animals fasted overnight and a TNBS enema was administered intracolonically (i.c.) with an 8cm long polyethylene canulla through the anus under mild anesthesia (Thiopental, i.p. 40 mg/kg). […] Animals were fasted for 5 h each day before i.c. treatments.
(§2) After 72 h of TNBS administration, euthanized animals (Thiopental, i.p. 100 mg/kg) were sacrificed and the last 8 cm portion of the colon was removed, gently opened, rinsed in physiological saline and photographed for further macroscopic analysis. Then, the colon segments were frozen in liquid nitrogen. Frozen colon tissues were powdered in liquid nitrogen by using a porcelain mortar and pestle and kept at −80 °C until used for biochemical measurements.
The extent of macroscopically apparent inflammation, ulceration and tissue disruption was determined in a randomized manner from the colored images, using proprietary computerized planimetry software which was developed in our laboratory (Stat_2_1_1, Szeged, Hungary) and is based on planimetrics. The area of macroscopically visible mucosal damage was calculated and expressed as a % of the total studied 8 cm colonic segment.

Assay [1] deals with sigma-1 receptor (σ1R). Nature of the assay: Western blot of sigma-1 receptor expression in colon, TNBS colitis. It is filed as in vivo, rat. How it is done: (§3) Male Wistar–Harlan rats (225–250 g) were purchased from Toxicoop Ltd. (Dunakeszi, Hungary) and housed in a room with acclimatized temperature under 12h day/night cycles with food and water ad libitum. Animals were randomly divided into 3 groups: absolute control (no treatment, n = 12), 50% EtOH (ethanol enema, n = 12), and TNBS (10 mg dissolved in 50% Ethanol, n = 85). Colitis was assessed following Morris’ method. Animals fasted overnight and a TNBS enema was administered intracolonically (i.c.) with an 8cm long polyethylene canulla through the anus under mild anesthesia (Thiopental, i.p. 40 mg/kg). […]
(§4) In total, 30 mg from each powdered sample was measured and suspended in RIPA buffer (Merck Millipore, Burlington, MA, USA) supplemented with phenylmethylsulfonyl fluoride (PMSF) (Sigma-Aldrich, Budapest, Hungary); 1/10 of the final volume. […] The supernatant was collected and protein concentration was determined by using a Bradford assay and bovine serum albumin as a standard. […] Results were analyzed using Quantity One Software version 4.5 (Bio-Rad Laboratories, Hercules, CA, USA). […]
On the technique in general: Immunoblotting shows a protein as a band on a membrane.

In assay [2] the test system is myeloperoxidase enzyme (MPO). In words: Myeloperoxidase activity in colon, TNBS colitis. It is filed as in vivo, rat. How it is done:
as §1, §2
To further break the membranes, three freeze–thaw cycles were applied in liquid nitrogen and a 37 °C water bath. Homogenates then were centrifuged at 10,000× g for 15 min at 4 °C. […] The reaction was started with the addition of 10 µL 0.03% hydrogen peroxide (H2O2). After shaking for 90 s, MPO activity was assayed spectrophotometrically at 490 nm (Benchmark Microplate Reader, Bio-Rad Laboratories, Hercules, CA, USA). MPO activity was expressed as uU/mg protein.

A further assay has as its system IL-6. Nature of the assay: IL-6 levels in colon by ELISA, TNBS colitis. It is filed as in vivo, rat. The method, then:
as §3
(§5) To determine the tissue levels of IL-6 and eNOS in the colon, we used double-antibody sandwich ELISA kits specific for rat IL-6 or eNOS. eNOS kit was purchased from MyBioSource (MBS721860; San Diego, CA, USA) and IL-6 was purchased from GenAsia Biotech Co., Ltd. (Shanghai, China). […] Parameters were measured according to the manufacturer’s instructions and protocols, and optical densities (OD) were assayed at λ = 450 nm. […]

Assay [3] relates to heme oxygenase enzyme (HO). In words: Heme oxygenase activity (bilirubin formation) in colon, TNBS colitis. Format: in vivo, rat. The note with it: TNBS group 0.26 ± 0.03. The method, then:
as §1, §2

In the next assay the test system is iNOS. Nature of the assay: Western blot of iNOS expression in colon, TNBS colitis. It is filed as in vivo, rat. How it is done:
as §3, §4

The next assay relates to NF-κB p65 subunit. Nature of the assay: Western blot of NF-κB p65 expression in colon, TNBS colitis. It is filed as in vivo, rat. The note with it: TNBS group 0.83 ± 0.09. How it is done:
as §3, §4

Another assay has as its system HMGB1. Nature of the assay: Western blot of HMGB1 expression in colon, TNBS colitis. The note with it: TNBS group 1.75 ± 0.165. Format: in vivo, rat. The method, then: as §3, §4
Assay [4] deals with T1, sigma-1 receptor (σ1R) (Rattus norvegicus, UniProt Q9R0C9).
T1 construct: from tissue; host or cells: rat colon membrane homogenate (male Wistar–Harlan rats; control, TNBS, 50% EtOH, TNBS + FLV treated)
In words: [3H](+)-pentazocine saturation binding in rat colon membranes. The note with it: TNBS-induced colitis rat colon membranes after 1 mg/kg FLV administration (TNBS + FLV). How it is done:
The homogenate was centrifuged at 17,000× g for 10 min (4 °C).
The incubation was terminated by diluting the samples with an ice-cold wash buffer (50 mM of Tris–HCl, pH 8.0), followed by repeated washing and rapid filtration through Whatman GF/B glass fiber filters (Whatman Ltd., Maidstone, UK) presoaked with 0.1% polyethyleneimine. Filtration was performed with a 24-well Brandel Cell Harvester (Gaithersburg, MD, USA). Filters were air-dried and immersed into Ultima Gold MV scintillation cocktail, and then radioactivity was measured with a TRI-CARB 2100TR liquid scintillation analyzer (Packard, Perkin Elmer, Waltham, MA, USA).
All data are presented as mean ± SEM. […] In competition binding studies, the inhibitory constants (Ki) were calculated from the inflection points of the displacement curves using nonlinear least-square curve fitting and the Cheng–Prusoff equation, Ki = EC50/(1 + [ligand]/Kd).

In the next assay the test system is UCHL-1. Nature of the assay: Western blot of UCHL-1 expression in colon, TNBS colitis. The note with it: FLV 1 mg/kg i.c.; TNBS group 1.23 ± 0.16. It is filed as in vivo, rat. The method, then: as §3, §4
The test system of a further assay is eNOS. In words: eNOS levels in colon by ELISA, TNBS colitis. Format: in vivo, rat. The note with it: FLV 1 mg/kg i.c.; TNBS group 2.62 ± 0.126. How it is done: as §3, §5
In general terms: In an ELISA, binding on a coated surface is turned into a signal by an enzyme label.

T1 sequence (Q9R0C9 whole entry): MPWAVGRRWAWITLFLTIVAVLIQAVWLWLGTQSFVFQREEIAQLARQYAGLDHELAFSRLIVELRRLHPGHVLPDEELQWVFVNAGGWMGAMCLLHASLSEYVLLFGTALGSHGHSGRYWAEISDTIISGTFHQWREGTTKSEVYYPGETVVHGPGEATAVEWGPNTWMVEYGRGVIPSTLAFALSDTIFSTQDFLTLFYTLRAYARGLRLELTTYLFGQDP

`CN1CCN(CCc2ccc(Cl)c(Cl)c2)CC1` [BD1063]: the “Severity of inflammation (area of mucosal damage, % of 8 cm colonic segment)” value in the assay with TNBS-induced rat colitis (0.1 mg/kg BD1063 i.c. once a day) is 76.77 ± 2.52%. Also, the “σ1R expression vs. TNBS group” value in the assay with sigma-1 receptor (σ1R) [1] (BD1063 0.1 mg/kg i.c.) was “didn’t affect the expression of the receptor”. Also, the “MPO activity vs. TNBS group” value in assay [2] (BD1063 0.1 mg/kg i.c.) is “didn’t affect the activity of the MPO”. For the same compound, in the assay with IL-6 (BD1063 0.1 mg/kg i.c.), the “IL-6 levels vs. TNBS group” value is recorded as “didn’t affect IL-6 levels”. In assay [3] (BD1063 0.1 mg/kg i.c.), the HO enzyme activity was 0.40 ± 0.04 nmol bilirubin/h/mg protein. Moreover, the “iNOS expression vs. TNBS group” value in the assay on iNOS (BD1063 0.1 mg/kg i.c.) is “did not alter the expression of iNOS”. In addition, the “NF-κB p65 subunit expression (normalized to β-actin)” value in the assay with NF-κB p65 subunit (BD1063 0.1 mg/kg i.c.) amounted to 0.48 ± 0.03 relative expression. In addition, the “HMGB1 expression (normalized to β-actin)” value in the assay with HMGB1 (BD1063 0.1 mg/kg i.c.) is 1.305 ± 0.044 relative expressions.

Regarding `O=C(O)c1cc(/N=N/c2ccc(S(=O)(=O)Nc3ccccn3)cc2)ccc1O` [SASP, Sulfasalazine], the “Severity of inflammation (area of mucosal damage, % of 8 cm colonic segment)” value with TNBS-induced rat colitis (positive control, 2 × 25 mg/kg per os) was determined as 35.78 ± 2.83%.

On to `COCCCC/C(=N\OCCN)c1ccc(C(F)(F)F)cc1` [FLV, Fluvoxamine], for which the “Bmax ± S.E.M., saturation binding (σ1R density)” value on sigma-1 receptor (σ1R) [4] was determined as 134 ± 14 fmol/mg. The “Severity of inflammation (area of mucosal damage, % of 8 cm colonic segment)” value with TNBS-induced rat colitis (0.1 mg/kg FLV i.c. once a day, 72 h after TNBS) was 41.23 ± 5.76%; with TNBS-induced rat colitis (1 mg/kg i.c. once a day, 72 h after TNBS), 28.29 ± 2.53%. For the same compound, in the assay on sigma-1 receptor (σ1R) [1] (FLV 1 mg/kg i.c., TNBS group 0.326 ± 0.05), the “σ1R expression (normalized to β-actin)” value is 0.72 ± 0.083 relative expression. In assay [2] (FLV 1 mg/kg i.c., TNBS group 42653.4 ± 3220.24), this compound displayed an MPO activity of 25021.2 ± 2554.66 uU/mg protein. Further, in the assay on UCHL-1, the “UCHL-1 expression (normalized to β-actin)” value is reported as 2.104 ± 0.13 relative expression. Further, in the assay with IL-6 (FLV 1 mg/kg i.c., TNBS group 60.48 ± 4.55), the “IL-6 levels in colon” value is 30.53 ± 4.10 ng/L. For the same compound, the HO enzyme activity in [3] (FLV 1 mg/kg i.c.) is reported as 0.40 ± 0.03 nmol bilirubin/h/mg protein. In the assay on eNOS, the eNOS levels is given as 4.21 ± 0.66 relative expression. Further, the “iNOS expression (normalized to β-actin)” value in the assay on iNOS (FLV 1 mg/kg i.c., TNBS group 0.53 ± 0.02) turned out to be 0.255 ± 0.11 relative expression. For the same compound, the “NF-κB p65 subunit expression (normalized to β-actin)” value with NF-κB p65 subunit (FLV 1 mg/kg i.c.) is 0.52 ± 0.04 relative expression. The “HMGB1 expression (normalized to β-actin)” value in the assay on HMGB1 (FLV 1 mg/kg i.c.) is on record as 1.264 ± 0.07 relative expressions.
